Data on 3 molecules can be found in patent publication US20230391776A1, “AMIDE OXAZOLE COMPOUND” (MEDSHINE DISCOVERY INC., priority 2020, published 2023).

SMILES strings stand for the structures. pIC50: −log10 of the molar value.

Data set [1] in a line: Pharmacokinetic study of mice. It is filed as in vivo. As to conditions: mouse, plasma, CD-1 male mice; for Vd / AUC(0-t) / clearance / half-life: IV 3 mg/kg; for Vd: read-out: Apparent volume of distribution Vdss; for AUC(0-t): read-out: Area under the plasma concentration-time curve AUC0-24h; for clearance: read-out: Clearance rate CL; for half-life: read-out: Half-life T1/2 (converted); for bioavailability / AUC / Cmax / Tmax: PO 10 mg/kg; for AUC: read-out: Area under the plasma concentration-time curve AUC; for Cmax: read-out: Peak concentration Cmax; for Tmax: read-out: Peak time Tmax. The method, then:
The purpose of this experiment was to study the pharmacokinetics of the test compound in the plasma of CD-1 male mice after intravenous injection and oral administration.
Intravenous injection group: the tested compound was weighed and dissolved with 5% DMSO/10% Solutol/85% H2O, and the pH was adjusted to 4-5 with 6M hydrochloric acid, and a clear solution of 1.5 mg/mL was prepared by vortex, which was filtered by 0.22 m microporous membrane for later use. CD-1 male mice from 6 to 10 weeks old were selected and the test compound solution was injected intravenously at a dose of 3 mg/kg. The sample collection time was: 0.083, 0.25, 0.5, 1, 2, 4, 6, 8, 24 hours.
Oral administration group: the tested compound was weighed and dissolved with 5% DMSO/10% Solutol/85% H2O, the pH was adjusted to 3-4 with 6M hydrochloric acid, and a clear solution of 2.0 mg/mL was prepared by vortex for later use. CD-1 male mice from 6 to 10 weeks old were selected and the test compound was administered orally at a dose of 10 mg/kg. The sample collection time was: 0.25, 0.5, 1, 2, 4, 6, 8, 10, 24 hours.
Approximately 50 μL of whole blood was collected through the jugular vein at each time point for plasma preparation for concentration determination by high performance liquid chromatography-tandem mass spectrometry (LC-MS/MS). All animals were euthanized by CO2 anesthesia after collecting PK samples at the last time point. The non-atrioventricular model of WinnonLin™ Version 6.3 (Pharsight, Mountain View, CA) pharmacokinetic software was used to process the plasma concentration, and the pharmacokinetic parameters were calculated by linear logarithmic trapezoid method.

In data set [2] the target is T1, human BTK (Homo sapiens, UniProt Q06187).
T1 construct: purchased Reaction Biology Corp
T1 sequence (Q06187 whole entry): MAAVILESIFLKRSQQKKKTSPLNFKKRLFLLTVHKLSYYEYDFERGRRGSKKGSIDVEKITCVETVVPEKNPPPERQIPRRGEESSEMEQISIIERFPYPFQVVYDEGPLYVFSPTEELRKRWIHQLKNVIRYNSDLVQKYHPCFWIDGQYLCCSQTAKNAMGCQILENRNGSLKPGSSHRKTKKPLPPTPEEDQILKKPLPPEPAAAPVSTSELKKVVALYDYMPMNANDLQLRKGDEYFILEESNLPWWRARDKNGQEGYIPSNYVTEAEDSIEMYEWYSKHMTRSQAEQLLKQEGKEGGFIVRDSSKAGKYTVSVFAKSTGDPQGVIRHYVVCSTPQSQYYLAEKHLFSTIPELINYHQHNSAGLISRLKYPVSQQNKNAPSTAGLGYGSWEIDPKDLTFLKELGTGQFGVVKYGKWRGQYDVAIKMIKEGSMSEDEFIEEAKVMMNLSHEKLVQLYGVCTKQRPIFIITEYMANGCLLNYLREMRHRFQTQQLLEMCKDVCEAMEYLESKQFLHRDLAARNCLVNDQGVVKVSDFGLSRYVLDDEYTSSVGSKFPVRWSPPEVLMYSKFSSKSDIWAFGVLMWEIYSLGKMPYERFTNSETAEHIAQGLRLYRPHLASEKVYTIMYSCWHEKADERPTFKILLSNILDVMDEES
Description: In vitro BTK kinase activity, 33P isotope-labeled kinase assay. It is filed as biochemical. The procedure: The IC50 values were determined using ^33P isotope-labeled kinase activity assay (Reaction Biology Corp) to evaluate the inhibitory ability of the tested compounds on human BTK.
Buffer conditions: 20 mM Hepes (pH 7.5), 10 mM MgCl2, 1 mM EGTA, 0.02% Brij35, 0.02 mg/mL BSA, 0.1 mM Na3VO4, 2 mM DTT, 1% DMSO.
Test procedure: At room temperature, the tested compound was dissolved in DMSO and a 10 mM solution was prepared for use. The substrate was dissolved in a newly prepared buffer solution, and the BTK kinase was added thereto and mixed evenly. The compound dissolved in DMSO was added to the kinase reaction mixture through Echo 550 (Acoustic technology; Nanoliter range). After incubation for 20 minutes at room temperature, ^33P-ATP was added to initiate the reaction. The reaction was carried out at room temperature for 2 hours, and the radioactivity of the reaction solution drop was detected by filtration-binding method with P81 ion exchange filter paper. The kinase activity data were expressed by comparing the kinase activity of the group containing the tested compound with the kinase activity of the blank group (only containing DMSO), and the IC50 value was obtained by curve fitting by Prism4 software (GraphPad), the experimental results were shown in Table 3.

The test system of data set [3] is TNF-α production in THP-1 cells. Description: TNF-α ELISA in LPS-stimulated THP-1 cells. It is filed as cell-based. The following applies: Homo sapiens, TNF-α in supernatant, 150 ng/mL LPS, 18 hours. The procedure: THP-1 human acute single cell leukemia cells were purchased from ATCC (Cat #TIB-202) and cultured at 37° C. in 5% CO2 incubator. The composition of medium was RPMI1640 (Gibco, Cat #22400-105), and the supplementary compositions were 10% FBS (Gibco, Cat #10091148); 1% PenStrep (Gibco, Cat #15140); 0.05 mM β-mercaptoethanol (Sigma, Cat #M6250).
TNF-α Elisa kit was used to detect the content of TNF-α in cell culture supernatant samples. TNF-α was produced by stimulating THP-1 cells with 150 ng/mL LPS (Sigma, Cat #L6529).
THP-1 cells cultured normally at logarithmic growth period were seeded in a 96-well plate (Corning #3599) at a certain concentration (1*10^5/100 μL) and then put into a cell incubator for incubation. After two hours, 16.7 μL of different concentrations of the compound to be tested (8*final concentration) were added and incubated in an incubator. After one hour, 16.7 μL of 1200 ng/mL LPS was added and incubated in an incubator. After 18 hours, the culture supernatant samples were collected by centrifugation, and the content of TNF-α could be detected by TNF-α Elisa kit. Finally, OD signals (OD450-OD570) were read on envision board reader.
The OD450-OD570 signal value was converted into a percentage inhibition rate.
Inhibition rate %=(ZPE−sample)/(ZPE−HPE)*100.
“HPE” referred to the OD450-OD570 signal value of the control well without LPS stimulated cells, and “ZPE” referred to the OD450-OD570 signal value of the control well with LPS stimulated cells. The IC50 value of the compound was calculated by XLFit in the excel add-in.
Y=Bottom+(Top−Bottom)/(1+(IC50/X)^HillSlope). Equation: […]

Data set [4] relates to TMD-8 human diffuse large B lymphoma cells. Description: TMD-8 cell proliferation (Cell Titer Glo). As to conditions: TMD8, 72 hours. It is filed as cell-based. The procedure:
(§1) The tumor cell lines OCI-LY10 and TMD-8 were used to detect the effect of the compound of the disclosure on inhibiting tumor cell proliferation in vitro.
TMD-8 human diffuse large B lymphoma cells, from Nanjing Cobioer Biotechnology Co., Ltd
(§2) The compound was diluted with DMSO to a final concentration of 10 mM. The compound was freshly prepared and ready for use.
(§3) a) Logarithmic growth period cells were collected, counted, resuspended with complete culture medium, the cell concentration was adjusted to an appropriate concentration (determined according to the results of cell density optimization test), inoculated on 96-well plates, and 100 μL of cell suspension was added to each well. Cells were incubated in an incubator with 37° C., 100% relative humidity and 5% CO2 for 24 hours.
(§4) b) The compound to be tested was diluted to 50 μM with culture medium and then gradient diluted for 8 times. Cells were added with 25 μL/well. The final concentrations of the compound were from […], 3-fold gradient dilution, with a total of 9 concentration points.
(§5) c) Cells were incubated in an incubator with 37° C., 100% relative humidity and 5% CO2 for 72 hours;
(§6) d) 60 μL of CTG test reagent was added to the culture medium.
(§7) e) Shaked fully and reacted in the dark for 10 min. Luminescence was measured on ENVISION and the inhibition rate was calculated.
(§8) Cell growth inhibition rate %=[(RLUv−RLUs)/(RLUv−RLUb)]×100%
(In general: Cellular ATP, detected with luciferase, serves as a proxy for viable cell number.)

Data set [5] relates to OCI-LY10 human diffuse large B lymphoma cells. Description: OCI-LY10 cell proliferation (Cell Titer Glo). The following applies: 72 hours. It is filed as cell-based. The procedure:
as §1
OCI-LY10 human diffuse large B lymphoma cells, from Nanjing Cobioer Biotechnology Co., Ltd
as §2, §3, §4, §5, §6, §7, §8

The term clearance denotes the volume of plasma or blood freed of the substance per unit of time. The bioavailability is the share of a dose that reaches the circulation, judged against a reference dose that is usually intravenous. Low readings indicate little systemic uptake, high ones much systemic uptake. By Tmax is commonly meant the time from dosing to the highest level. For orientation: pIC50 means the negative decadic logarithm of the IC50, by convention in mol/L. The low end stands for a high IC50, the high end for a low IC50. `Cc1cc(-c2nc(C(=O)Nc3cn4cc(C(C)(C)O)nc4cc3-c3ccccc3)co2)ccn1` [WX009]: in data set [1], the Vd amounted to 1.5 L/kg, the AUC(0-t) was 17.9 µM·h, the clearance was 5.9 mL/min/kg and the half-life is 8.1 h. Moreover, in data set [1], the bioavailability was 78%, the AUC came out at 48 µM·h, the Cmax turned out to be 17.8 µM and the Tmax amounted to 0.5 h. In data set [2], the pIC50 was 7.70. The same molecule had a pIC50 in data set [3] of 7.22. In data set [4], the pIC50 was 7.43. Moreover, in data set [5], the negative logarithm of the IC50 (pIC50) was 7.32.
As to `CC(C)(O)c1cn2cc(NC(=O)c3coc(-c4ccnc(N)c4)n3)c(-c3ccccc3)cc2n1` [WX017], in data set [1], the Vd is 0.5 L/kg, the AUC(0-t) came out at 7.67 µM·h, the clearance was determined as 15.1 mL/min/kg and the half-life was 2.3 h. In addition, in data set [1], the bioavailability is 41%, the AUC worked out at 10.4 µM·h, the Cmax is 6.52 µM and the Tmax was 0.8 h. Besides, the pIC50 in data set [2] was 8.28. In data set [3], the negative-log IC50 (pIC50) was 7.80. The molecule also showed a pIC50 in data set [4] of 8.00. For the same molecule, in data set [5], the pIC50 is 8.15.
`CC(C)(O)c1cn2cc(NC(=O)c3coc(-c4ccnc(N)c4F)n3)c(-c3ccccc3)cc2n1` [WX027]: in data set [1], the Vd worked out at 0.8 L/kg, the AUC(0-t) turned out to be 3.77 µM·h, the clearance is 28.2 mL/min/kg and the half-life is 1.9 h. In data set [1], the bioavailability was 64%, the AUC was determined as 8.08 µM·h, the Cmax is 4.93 µM and the Tmax was determined as 0.3 h. Besides, the pIC50 in data set [2] was 8.54. This molecule had a pIC50 in data set [3] of 7.38. The negative logarithm of the IC50 (pIC50) in data set [4] was 7.49. For the same molecule, the pIC50 in data set [5] is 7.59.
